Assay [1] concerns the target T1, 11b-HSD1 (Mus musculus, UniProt P50172).
T1 construct: endogenous in cells; host or cells: 3T3-L1 (ATCC-CL-173), differentiated into adipocytes
In words: Cellular assay, 11b-HSD1 activity in differentiated 3T3-L1 cells. Type of assay: cell-based. The settings on record: 4 hour pre-incubation, pIC50 scored, read-out: [C2] HSD1 cellular 3T3-L1 Score. The procedure: The effects on 11b-HSD1 activity was measured in differentiated 3T3-L1 cells and rat hepatocytes.
Mouse fibroblast 3T3-L1 cells (ATCC-CL-173) were seeded at a density of 16500 cells/ml in 12 well plates and grown for 7 days in DMEM medium (supplemented with 10% heat inactivated foetal calf serum, 2 mM glutamine and 25 mg gentamycin) at 37° C. in a humidified 5% CO2 atmosphere. Medium was refreshed twice a week. Fibroblasts were differentiated into adipocytes at 37° C. in a 5% CO2 humidified atmosphere in growth medium containing 2 μg/ml insulin, 55 μg/ml IBMX and 39.2 μg/ml dexamethasone.
Primary hepatocytes from male rats were seeded on normal Falcon 12 well plates at a density of 250000 cells/well and incubated for 16 hours at 37° C. in a 5% CO2 humidified atmosphere in DMEM-HAM's F12 medium containing 5% Nu-serum, 100 U/ml penicillin, 100 μg/ml streptomycin, 0.25 μg/ml amphotericin B, 50 μg/ml gentamycin sulfate, 5 μg/ml insulin and 392 ng/ml dexamethasone. Following a 4 hour pre-incubation with test compound, 0.5 μCi ^3H-cortisone or dehydrocorticosterone, was added to the 3T3-L1 cultures. One hour later, the medium was extracted on Extrelut^3-columns with 15 ml diethyl ether and the extract was analysed by HPLC as described above. The effects of JNJ-compounds on rat hepatocyte HSD1 activity was measured after an incubation period of 90 minutes with 0.5 μCi^3H-dehydrocorticosterone. Corticosterone formation was analysed by HPLC.
(§1) As for the enzymatic assays, the compounds to be tested were taken from a stock solution and tested at a final concentration ranging from −10^−5M to 3·10^−9M. From the thus obtained dose response curves, the pIC50 value was calculated and scored as follows; Score 1=pIC50 value<5, Score 2=pIC50 value in the range of 5 to 6, Score 3=pIC50 value>6. (in this table NT stands for Not Tested).

For assay [2], the target named is hHSD1 (Homo sapiens, UniProt P28845). In words: Enzymatic assay, 11b-HSD1 reductase activity (conversion of cortisone into cortisol), recombinant protein. Type of assay: biochemical. The settings on record: 2 μM cortisone, 180 μM NADPH, pH 7.2, pIC50 scored, read-out: [C1] hHSD1 reductase Score. The procedure: The effects of compounds on 11b-HSD1 dependent conversion of cortisone into cortisol (reductase activity) was studied in a reaction mixture containing 30 mM Tris-HCl buffer pH 7.2, 180 μM NADPH, 1 mM EDTA, 2 μM cortisone, 1 μl drug and/or solvent and 11 μg recombinant protein in a final volume of 100 μl.
Chain of hHSD1 (P28845 whole entry): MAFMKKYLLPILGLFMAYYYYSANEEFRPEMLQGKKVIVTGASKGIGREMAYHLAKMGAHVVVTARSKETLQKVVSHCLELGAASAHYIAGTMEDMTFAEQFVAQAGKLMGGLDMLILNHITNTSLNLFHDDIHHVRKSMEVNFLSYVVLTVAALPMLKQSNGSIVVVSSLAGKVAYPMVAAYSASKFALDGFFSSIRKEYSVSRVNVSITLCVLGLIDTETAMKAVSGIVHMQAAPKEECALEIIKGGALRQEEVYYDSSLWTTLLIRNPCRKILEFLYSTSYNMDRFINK
All incubations were performed for 45 min at 37 C in a water bath. The reaction was stopped by adding 100 μl acetonitrile containing 20 μg corticosterone as internal standard. After centrifugation, the product formation was analysed in the supernatant by HPLC on a Hypersyl BDS-C18 column using 0.05 mM ammonium acetate/methanol (50/50) as solvent. In all of the aforementioned assays, the drugs to be tested were taken from a stock solution and tested at a final concentration ranging from −10^−5M to 3·10^−9M. From the thus obtained dose response curves, the pIC50 value was calculated and scored as follows; Score 1=pIC50 value<5, Score 2=pIC50 value in the range of 5 to 6, Score 3=pIC50 value>6. (in this table NT stands for Not Tested).

Assay [3] concerns the target T2, 11b-HSD2 (Homo sapiens, UniProt P80365).
T2 construct: endogenous in cells; host or cells: HepG2 (ATCC HB-8065)
T2 sequence (P80365 1-405): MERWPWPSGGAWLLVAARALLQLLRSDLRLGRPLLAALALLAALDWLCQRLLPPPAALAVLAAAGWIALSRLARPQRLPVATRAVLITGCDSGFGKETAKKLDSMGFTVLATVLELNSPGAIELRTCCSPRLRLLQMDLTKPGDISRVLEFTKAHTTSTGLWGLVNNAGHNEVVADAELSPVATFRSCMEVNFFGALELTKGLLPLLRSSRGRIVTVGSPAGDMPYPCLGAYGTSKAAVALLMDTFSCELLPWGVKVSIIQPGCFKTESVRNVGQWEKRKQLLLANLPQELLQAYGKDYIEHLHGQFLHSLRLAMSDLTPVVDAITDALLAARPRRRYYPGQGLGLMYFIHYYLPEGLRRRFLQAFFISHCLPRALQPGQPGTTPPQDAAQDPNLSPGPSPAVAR
The experiment in a line: Cellular assay, 11b-HSD2 activity in HepG2 cells. The settings on record: 4 hour pre-incubation, pIC50 scored, read-out: [C2] HSD2 cellular HepG2 Score. Type of assay: cell-based. The procedure:
The effects on 11b-HSD2 activity was studied in HepG2 and LCC-PK1-cells HepG2-cells (ATCC HB-8065) were seeded in 12 well plates at a density of 100,000 cells/ml and grown at 37° C. in a humidified 5% CO2 atmosphere in MEM-Rega-3 medium supplemented with 10% heat inactivated foetal calf serum, 2 mM L-glutamine and sodium bicarbonate). Medium was refreshed twice a week.
Following a 4 hour pre-incubation with test compound, 0.5 μCi ^3H-cortisol or corticosterone, was added to the cultures. One hour later, the medium was extracted on Extrelut^3-columns with 15 ml diethyl ether and the extract was analysed by HPLC as described above.
as §1

T1 sequence (P50172 whole entry): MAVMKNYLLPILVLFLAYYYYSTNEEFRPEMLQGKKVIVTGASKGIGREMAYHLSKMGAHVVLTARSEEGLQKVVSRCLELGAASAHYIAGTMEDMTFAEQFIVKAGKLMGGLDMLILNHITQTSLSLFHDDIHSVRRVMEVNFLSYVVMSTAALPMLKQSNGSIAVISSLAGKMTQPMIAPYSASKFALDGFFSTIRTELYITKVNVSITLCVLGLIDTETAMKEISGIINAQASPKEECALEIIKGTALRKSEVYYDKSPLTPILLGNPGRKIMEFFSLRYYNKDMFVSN

Take `O=C1[C@@H]2c3ccccc3CC[C@@H]2CN1C1C2CC3CC(C2)CC1C3` (stereo partly shown) [Compound 1]: the IC50 in assay [1] and in assay [2] was 1 to 10 µM throughout.

On to `O=C1C2Cc3ccccc3CC2CN1C1C2CC3CC(C2)CC1C3` (stereo not shown) [Compound 2], for which the IC50 in assay [1] was less than 1 µM; in assay [2] it was less than 1 µM; in assay [3], 1 to 10 µM.

Turning to `O=C1[C@H]2CCc3ccccc3[C@@H]2CN1C1C2CC3CC(C2)CC1C3` (stereo partly shown) [Compound 3], the IC50 in assay [1], in assay [2] and in assay [3] was less than 1 µM in each case.

As for `O=C1[C@H]2Cc3ccccc3CN2CN1C1C2CC3CC(C2)CC1C3` (stereo partly shown) [Compound 4], the IC50 in assay [1] is less than 1 µM; in assay [2] it was more than 10 µM; in assay [3], more than 10 µM.

For `O=C1N(C2C3CC4CC(C3)CC2C4)C[C@H]2Cc3ccccc3CN12` (stereo partly shown) [Compound 5], the results for the IC50 in assay [1], in assay [2] and in assay [3] were less than 1 µM, 1 to 10 µM and 1 to 10 µM, respectively.

Take `O=C1N2CCc3ccccc3C2CN1C1C2CC3CC(C2)CC1C3` (stereo not shown) [Compound 6]: the IC50 in assay [1], in assay [2] and in assay [3] was less than 1 µM in each case.

In the case of `O=C1N2CCc3ccc(Br)cc3C2CN1C1C2CC3CC(C2)CC1C3` (stereo not shown) [Compound 7], the IC50 in assay [1] and in assay [2] was less than 1 µM throughout.

With `O=C1[C@@H]2CCc3ccccc3[C@@H]2CN1C1C2CC3CC(C2)CC1C3` (stereo partly shown) [Compound 8], the IC50 is less than 1 µM in assay [1], 1 to 10 µM in assay [2] and 1 to 10 µM in assay [3].

With `COc1cccc2c1CC1CN(C3C4CC5CC(C4)CC3C5)C(=O)C1C2` (stereo not shown) [Compound 9], the IC50 in assay [1] is less than 1 µM; in assay [2], 1 to 10 µM; in assay [3], 1 to 10 µM.

For the compound `COc1ccc2c(c1)CC1C(=O)N(C3C4CC5CC(C4)CC3C5)CC1C2` (stereo not shown) [Compound 10], the IC50 in assay [1] was less than 1 µM; in assay [2] it was less than 1 µM; in assay [3], more than 10 µM.

Consider `O=C1N(C2C3CC4CC(C3)CC2C4)C[C@@H]2Cc3ccccc3CN12` (stereo partly shown) [Compound 11], for which the IC50 in assay [1] was less than 1 µM.

As to `O=C1[C@@H]2Cc3ccccc3CN2CN1C1C2CC3CC(C2)CC1C3` (stereo partly shown) [Compound 12], the IC50 in assay [1] is 1 to 10 µM.

`O=C1N(C2C3CC4CC(C3)CC2C4)CC2CCc3ccccc3N12` (stereo not shown) [Compound 13]: the IC50 in assay [1], in assay [2] and in assay [3] was more than 10 µM throughout.

Turning to `O=C1N(CC23CC4CC(CC(C4)C2)C3)CC2c3ccccc3CCN12` (stereo not shown) [Compound 14], the IC50 is less than 1 µM in assay [1], less than 1 µM in assay [2] and 1 to 10 µM in assay [3].

Regarding `O=C1[C@H]2CCc3ccccc3[C@@H]2CN1CC12CC3CC(CC(C3)C1)C2` [Compound 15], the IC50 was less than 1 µM in assay [1], less than 1 µM in assay [2] and 1 to 10 µM in assay [3].

For the compound `O=C1[C@@H]2CCc3ccccc3[C@@H]2CN1CC12CC3CC(CC(C3)C1)C2` [Compound 16], the IC50 is less than 1 µM in assay [1], less than 1 µM in assay [2] and 1 to 10 µM in assay [3].

Regarding `O=C1[C@H]2CCc3ccccc3[C@@H]2CN1C12CC3CC(CC(C3)C1)C2` [Compound 17], the IC50 in assay [1], in assay [2] and in assay [3] was less than 1 µM each time.

Take `O=C1[C@H]2Cc3ccsc3C[C@@H]2CN1C1C2CC3CC(C2)CC1C3` (stereo partly shown) [Compound 18]: the IC50 in assay [1] is less than 1 µM; in assay [2], less than 1 µM; in assay [3], 1 to 10 µM.

Take `O=C1[C@@H]2CCc3ccccc3[C@H]2CN1Cc1ccccc1` [Compound 19]: the IC50 is less than 1 µM in assay [1] and more than 10 µM in assay [2].

Regarding `O=C1[C@@H]2CCc3ccccc3[C@@H]2CN1Cc1ccccc1` [Compound 20], the figures for the IC50 in assay [1] and in assay [2] were less than 1 µM and 1 to 10 µM, respectively.

For `O=C1C2=Cc3cccnc3CC2CN1C1C2CC3CC(C2)CC1C3` (stereo not shown) [Compound 21], the IC50 in assay [1] was less than 1 µM; in assay [2], more than 10 µM.

As to `O=C1C2=Cc3cnccc3CC2CN1C1C2CC3CC(C2)CC1C3` (stereo not shown) [Compound 22], the IC50 in assay [1] is less than 1 µM; in assay [2] it was 1 to 10 µM.

With `O=C1N2CCc3c(Br)cccc3C2CN1C1C2CC3CC(C2)CC1C3` (stereo not shown) [Compound 23], the IC50 in assay [1], in assay [2] and in assay [3] was less than 1 µM in each case.

For the compound `O=C1[C@@H]2Cc3ccccc3C[C@@H]2CN1[C@@H]1[C@@H]2CC3C[C@H]1C[C@](O)(C3)C2` [Compound 26], the IC50 was 1 to 10 µM in assay [1], 1 to 10 µM in assay [2] and more than 10 µM in assay [3].

As for `O=C1[C@H]2Cc3ccccc3C[C@H]2CN1[C@H]1[C@@H]2CC3C[C@H]1C[C@](O)(C3)C2` [Compound 27], the IC50 in assay [1] was less than 1 µM; in assay [2] it was less than 1 µM; in assay [3] it was 1 to 10 µM.

For the compound `O=C1[C@@H]2Cc3cccnc3C[C@@H]2CN1[C@@H]1[C@@H]2CC3C[C@H]1C[C@](O)(C3)C2` [Compound 28], the IC50 in assay [1], in assay [2] and in assay [3] was more than 10 µM each time.

For the compound `O=C1[C@H]2Cc3cnccc3C[C@H]2CN1[C@@H]1[C@@H]2CC3C[C@H]1C[C@](O)(C3)C2` [Compound 29], the IC50 in assay [1], in assay [2] and in assay [3] was more than 10 µM throughout.

Take `O=C1C2=Cc3cnccc3CC2CN1[C@H]1[C@@H]2CC3C[C@H]1C[C@](O)(C3)C2` (stereo partly shown) [Compound 30]: the IC50 in assay [1] was 1 to 10 µM; in assay [2] it was more than 10 µM; in assay [3], more than 10 µM.

On to `O=C1[C@@H]2CCc3ccccc3[C@H]2CN1[C@H]1[C@@H]2CC3C[C@H]1C[C@](O)(C3)C2` [Compound 31], for which the IC50 in assay [1], in assay [2] and in assay [3] was less than 1 µM throughout.

In the case of `O=C1[C@@H]2CCc3ccccc3[C@H]2CN1[C@H]1[C@@H]2CC3C[C@H]1C[C@](F)(C3)C2` [Compound 32], the IC50 in assay [1], in assay [2] and in assay [3] was less than 1 µM throughout.

Regarding `O=C1[C@@H]2CCc3ccccc3[C@@H]2CN1[C@H]1[C@@H]2CC3C[C@H]1C[C@](O)(C3)C2` [Compound 33], the IC50 in assay [1], in assay [2] and in assay [3] was less than 1 µM each time.

Consider `O=C1[C@H]2Cc3cnccc3C[C@H]2CN1[C@H]1[C@@H]2CC3C[C@H]1C[C@](O)(C3)C2` [Compound 34], for which the IC50 in assay [1] and in assay [2] was 1 to 10 µM throughout.

The values above are taken from patent US9150512B2, “Tricyclic lactam derivatives as 11-beta hydroxysteroid dehydrogenase inhibitors” (Janssen Pharmaceutica NV, priority 2004, dated 2015).
